{"source": "patent US9517221B2", "about": "“(2R)-2-propyloctanoic acid for functional brain disease” (ONO PHARMACEUTICAL CO., LTD., priority 2006, dated 2016)", "key": {"[1]": {"test_system": "olfactory bulbectomized rats", "assay": "Anxiolytic behavior on elevated plus maze of olfactory bulbectomized rats", "format": "in vivo, rat", "conditions": "for Time (seconds) stayed on closed arm (mean ± S. E.) / Time (seconds) stayed on open arm (mean ± S. E.): 5 minutes test 1 hour after 8 days administration", "procedure": "SPF rats (Crlj: WI) were used in the test. The animal for olfactory bulbectomy was anesthetized with pentobarbital sodium (Nembutal R Injection, Dainippon Pharmaceutical, dose: 1 mL/kg (intraperitoneal administration)), and the head was fixed using a brain stereotaxic apparatus (ASI Instruments, Inc., NARISHIGE). After incising the head skin, holes are opened at right and left olfactory bulb regions of the skull using a dental drill (manufactured by […]), and the right and left olfactory bulbs were removed by sucking them using an aspirator connected to a tip-removed oral sonde, and the head skin was stitched thereafter. In this connection, in the case of the animals for sham-operation, anesthesia, brain fixation and head skin incision were carried out in the same manner as in the animals for olfactory bulbectomy, holes are opened at right and left olfactory bulb regions of the skull and the head skin was stitched without carrying out suction removal of the olfactory bulbs. The rats after olfactory bulbectomy were put into a series of five stainless steel cages, each of which was partitioned into two parts with an acrylic board for individual rearing space, and individually reared under a dark condition. The rats were subjected to the following tests of (2) and (3). • (a) Sham-operation group (12 animals); • (b) Vehicle control group (12 animals); • (c) 3 mg/kg administration group (12 animals) of (2R)-2-propyloctanoic acid; • (d) 10 mg/kg administration group (12 animals) of (2R)-2-propyloctanoic acid; • (e) 10 mg/kg administration group (12 animals) of Milnacipran hydrochloride. [Drug Administration] As shown below, drug solution or vehicle was administered once a day for 8 days, a total of 8 times, at a respective liquid dose of 5 mL/kg. • (a) Sham-operation group: vehicle (0.1% by volume Tween 80) aqueous solution; • (b) Vehicle control group: vehicle (0.1% by volume Tween 80) aqueous solution; • (c) 3 mg/kg administration group of (2R)-2-propyloctanoic acid: a drug solution in which (2R)-2-propyloctanoic acid was prepared to be 0.6 mg/mL with the vehicle; • (d) 10 mg/kg administration group of (2R)-2-propyloctanoic acid: a drug solution in which (2R)-2-propyloctanoic acid was prepared to be 2.0 mg/mL with the vehicle; • (e) 10 mg/kg administration group of milnacipran hydrochloride: a drug solution in which Milnacipran hydrochloride was prepared to be 2.3 mg/mL with the vehicle (Milnacipran itself is included in 2.0 mg/mL). (2) Examination of the Activity for Hyperemotional Reactivity <Evaluation Method> Evaluation of the anxiolytic behavior on an elevated plus maze was carried out once per animal for 5 minutes from 1 hour to 1 hour and 10 minutes after 8 days of the administration, in accordance with the following method. Each animal was softly put on a platform of elevated plus maze which is described later, toward one of the open arms. Thereafter, behavior of the animal was shot using a video camera (CCD-DC430, SONY) set up the elevated plus maze, and the images were analyzed by a video image behavior analyzing device (Etho Vision, manufactured by Noldus). Additionally, the images from the video camera were recorded and handled as reference data. In this connection, when the animal fell, it was regarded as staying on the open arm, and the animal was quickly returned to the place or the open arm where it was present just before the falling. The evaluation was carried out on the respective items shown by A to H (A: frequency of approach to the open arm, B: frequency of approach to the closed arm, C: frequency of approach to the platform, D: stayed time (second) on the open arm, E: stayed time (second) on the closed arm, F: stayed time (second) on the platform, G: defecation frequency on the open arm, platform and closed arm, and H: urination frequency on the open arm, platform and closed arm), by measuring A to F using the video image behavior analyzing device, and by measuring G and H after completion of the measurement. […]"}, "SD rats": {"test_system": "SD rats", "assay": "Water-immersion stress-loaded elevated plus maze test (Test Example 1)", "format": "in vivo, rat", "conditions": "oral, 1 hour before test, written in present tense", "procedure": "Two open arms of the same length (50×10 cm) and two closed arms of the same length (50×10 cm) (a wall of 30 cm is set) are set crossing at a right angle at a height of 50 cm from the floor and used as an elevated plus maze apparatus. Constant lighting is effected by attaching white lights to 70 cm over both of the open arms.\nUsing a pool (40×30×38 cm) charged with water of 22° C. to a depth of 25 cm, 120 seconds of forced swimming is loaded on SD rats of 7 weeks of age (Charles River Japan). After 9 minutes of the water-immersion stress-loading, the rats are allowed to stand still on a central part of the apparatus, and the behavior of the rats are analyzed for 5 minutes by an automatic behavior tracing analysis system (EthoVision Version 3.0, Noldus Information Technology) to calculate its staying time (second) on the open arms.\nIn this connection, rats of the control group are not subjected to the water-immersion stress-loading. Also, a vehicle is orally administered to the vehicle treating group 1 hour before the commencement of the test, and a test drug of various concentrations is administered to the test drug treating group."}, "Wistar male rats": {"test_system": "Wistar male rats", "assay": "Rat learned helplessness test (Test Example 3)", "format": "in vivo", "conditions": "oral once a day for 6 days and 1 hour before shock training on 7th day; present tense", "procedure": "A learned helplessness test is carried out using a two way type shuttle box which is divided into two by a gate which can be opened and closed so that shift to right and left is possible. Wistar male rats are used in the test, and a shock training is carried out on the 1st day of the test. The shock training is carried out by putting the rats in the apparatus under an inescapable condition by closing the gate, and applying an electric shock (10 seconds×90 times, intervals of 2 seconds) through a floor grid. In this connection, the rats of the control group are not treated with the electric shock and allowed to stay free in the apparatus for the same period of time. An escape test is carried out after 24 hours of the shock training. The escape test is carried out by putting the rats in the apparatus under an escapable condition by opening the gate, and after 5 minutes of adaptation, by applying a light stimulation and a sound stimulation (conditional stimulation) simultaneously for 5 seconds and subsequently applying an electric shock (no conditional stimulation) for 10 seconds. By regarding a case of no escaping and continuously receiving the electric shock as escape failure, this trial is repeated 40 times (intervals of 5 seconds), and behavior of the rats is analyzed by a behavior analysis software (MED-PC Version 1.16). […]"}, "[2]": {"conditions": "dose 3 mg/kg once a day for 8 days"}, "[3]": {"conditions": "dose 10 mg/kg once a day for 8 days"}}}
{"smiles": "CCCCCC[C@@H](CCC)C(=O)O", "note": "[(2R)-2-propyloctanoic acid]", "values": [{"measurement": "Time (seconds) stayed on closed arm (mean ± S. E.)", "setting": "[1]; [2]", "result": "188.7 ± 19.7", "unit": "s"}, {"measurement": "Time (seconds) stayed on open arm (mean ± S. E.)", "setting": "[1]; [2]", "result": "73.7 ± 17.5", "unit": "s"}, {"measurement": "Time (seconds) stayed on closed arm (mean ± S. E.)", "setting": "[1]; [3]", "result": "209.4 ± 24.1", "unit": "s"}, {"measurement": "Time (seconds) stayed on open arm (mean ± S. E.)", "setting": "[1]; [3]", "result": "57.7 ± 22.1", "unit": "s"}, {"measurement": "Anxiolytic behavior versus vehicle control group", "setting": "[1]; olfactory bulbectomized rats, elevated plus maze, result in words", "result": "inhibited the anxiolytic behavior"}, {"measurement": "Staying time on the open arms versus vehicle treating group", "setting": "SD rats", "result": "prolongs the staying time on the open arms"}, {"measurement": "Number of escape failures versus vehicle treating group", "setting": "Wistar male rats", "result": "inhibits increase of the number of escape failures"}]}
